Bounds are passed on as bounds.

This note sets out measurements from patent US8993632B2, “Inhibitors of the 11-beta-hydroxysteroid dehydrogenase type 1 enzyme” (AbbVie Inc., priority 2005, dated 2015).

In assay [1] the target is T1, human 11-β-HSD-2 (Homo sapiens, UniProt P80365).
T1 sequence (P80365 1-405): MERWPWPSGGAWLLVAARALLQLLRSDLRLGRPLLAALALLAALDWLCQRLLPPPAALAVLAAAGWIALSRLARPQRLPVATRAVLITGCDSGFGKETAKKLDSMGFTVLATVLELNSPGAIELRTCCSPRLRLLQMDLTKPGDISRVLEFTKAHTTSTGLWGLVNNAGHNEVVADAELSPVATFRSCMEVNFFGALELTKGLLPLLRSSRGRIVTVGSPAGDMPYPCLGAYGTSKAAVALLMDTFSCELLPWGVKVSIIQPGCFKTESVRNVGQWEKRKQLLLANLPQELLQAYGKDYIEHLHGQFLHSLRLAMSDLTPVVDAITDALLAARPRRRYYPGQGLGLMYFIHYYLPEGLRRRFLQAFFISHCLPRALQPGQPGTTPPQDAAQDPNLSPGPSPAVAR
The assay can be described thus: 11β-HSD-2 Scintillation Proximity Assay (tritiated cortisol, NAD+). It counts as biochemical. Particulars: human enzyme, SPA. How it is done: (§1) The reaction was stopped by adding a non-specific 11β-HSD inhibitor, 18β-glycyrrhetinic acid. The tritiated cortisol was captured by a mixture of an anti-cortisol monoclonal antibody and SPA beads coated with anti-mouse antibodies. The reaction plate was shaken at room temperature and the radioactivity bound to SPA beads was then measured on a β-scintillation counter. The 11-βHSD-1 assay was carried out in 96-well microtiter plates in a total volume of 220 μl. […] In order to drive the reaction in the forward direction, 1 mM G-6-P was also added. Solid compound was dissolved in DMSO to make a 10 mM stock followed by a subsequent 10-fold dilution with 3% DMSO in Tris/EDTA buffer (pH 7.4). […] Reactions were initiated by the addition of 10 μl of 0.1 mg/ml E. coli lysates overexpressing 11β-HSD-1 enzyme. After shaking and incubating plates for 30 minutes at room temperature, reactions were stopped by adding 10 μl of 1 mM glycyrrhetinic acid. The product, tritiated cortisol, was captured by adding 10 μl of […] monoclonal anti-cortisol antibodies and 100 μl SPA beads coated with anti-mouse antibodies. After shaking for 30 minutes, plates were read on a liquid scintillation counter Topcount. Percent inhibition was calculated based on the background and the maximal signal. Wells that contained substrate without compound or enzyme were used as the background, while the wells that contained substrate and enzyme without any compound were considered as maximal signal. Percent of inhibition of each compound was calculated relative to the maximal signal and IC50 curves were generated. This assay was applied to 11β-HSD-2 as well, whereby tritiated cortisol and NAD^+ were used as substrate and cofactor, respectively.
On the technique in general: SPA uses beads or plates that emit light when radiolabelled molecules are held near them.

For assay [2], the target named is T2, truncated human 11β-HSD-1 enzyme (24-287AA) (Homo sapiens, UniProt P28845).
T2 construct: truncated human 11β-HSD-1 enzyme (24-287AA); made in house; host or cells: E. coli (crude lysate)
The assay can be described thus: 11β-HSD-1 enzymatic Scintillation Proximity Assay (SPA). The format is biochemical. How it is done:
as §1

T2 sequence (P28845 24-287): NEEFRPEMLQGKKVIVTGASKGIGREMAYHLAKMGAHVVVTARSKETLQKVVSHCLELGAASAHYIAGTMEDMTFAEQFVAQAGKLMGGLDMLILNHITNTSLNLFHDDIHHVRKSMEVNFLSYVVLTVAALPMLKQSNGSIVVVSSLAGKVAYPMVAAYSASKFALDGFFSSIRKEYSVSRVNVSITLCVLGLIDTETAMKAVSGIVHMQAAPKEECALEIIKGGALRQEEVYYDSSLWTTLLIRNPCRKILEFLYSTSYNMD

As usually defined, the IC50 is the concentration that gives 50% inhibition. Lower therefore signals greater potency in that assay. Turning to `Cc1noc(C)c1-c1ccc(C(C)(C)C(=O)N[C@@H]2[C@@H]3C[C@@H]4C[C@H]2C[C@@](C(N)=O)(C4)C3)cc1` [HH, E-4-({2-[4-(3,5-dimethylisoxazol-4-yl)phenyl]-2-methylpropanoyl}amino)adamantane-1-carboxamide], the IC50 was 40000 nM in assay [1] and 44 nM in assay [2]. On to `NC(=O)[C@]12C[C@@H]3C[C@H](C1)[C@@H](NC(=O)C1(c4ccc(Cl)cc4)CC1)[C@@H](C3)C2` [H, E-4-({[1-(4-chlorophenyl)cyclopropyl]carbonyl}amino)adamantane-1-carboxamide], for which the concentration for half-maximal inhibition (IC50) is over 30000 nM in assay [1] and 33 nM in assay [2]. For `CC(C)(C(=O)N[C@@H]1[C@@H]2C[C@@H]3C[C@H]1C[C@@](C(N)=O)(C3)C2)c1cccs1` [U, E-4-[(2-methyl-2-thien-2-ylpropanoyl)amino]adamantane-1-carboxamide] the same measures were 12000 nM and 16 nM.

With `NC(=O)[C@]12C[C@@H]3C[C@H](C1)[C@@H](NC(=O)C1(c4ccccc4F)CCCC1)[C@@H](C3)C2` [O, E-4-({[1-(2-fluorophenyl)cyclopentyl]carbonyl}amino)adamantane-1-carboxamide], the IC50 in assay [1] stood at 16000 nM; in assay [2], 38 nM.

With `NC(=O)[C@]12C[C@@H]3C[C@H](C1)[C@@H](NC(=O)C1(c4cccc(F)c4)CCCC1)[C@@H](C3)C2` [Compound L, E-4-({[1-(3-fluorophenyl)cyclopentyl]carbonyl}amino)adamantane-1-carboxamide], the IC50 in assay [1] worked out at 16000 nM; in assay [2] it was 25 nM.

`CC(C)(C(=O)N[C@@H]1[C@@H]2C[C@@H]3C[C@H]1C[C@@](C(=O)NCc1ccc(C(=O)O)cc1)(C3)C2)c1cccs1` [JJ, 4-{[({(E)-4-[(2-methyl-2-thien-2-ylpropanoyl)amino]-1-adamantyl}carbonyl)amino]methyl}benzoic acid]: the IC50 in assay [1] was 60000 nM; in assay [2] it was 95 nM. For `NC(=O)[C@]12C[C@@H]3C[C@H](C1)[C@@H](NC(=O)C1(c4ccc(Cl)cc4)CCCCC1)[C@@H](C3)C2` [G, E-4-({[1-(4-chlorophenyl)cyclohexyl]carbonyl}amino)adamantane-1-carboxamide] the same measures were 7400 nM and 59 nM. With `CC(C)(C(=O)N[C@@H]1[C@@H]2C[C@@H]3C[C@H]1C[C@@](C(N)=O)(C3)C2)c1ccc(Cl)cc1` [J, E-4-{[2-(4-chlorophenyl)-2-methylpropanoyl]amino}adamantane-1-carboxamide], it took 33 nM to reach half-maximal inhibition in assay [2] (IC50). For the molecule `CC(C)(C(=O)N[C@@H]1[C@@H]2C[C@@H]3C[C@H]1C[C@@](C(N)=O)(C3)C2)c1ccc(C(F)(F)F)cn1` [W, E-4-({2-methyl-2-[5-(trifluoromethyl)pyridin-2-yl]propanoyl}amino)adamantane-1-carboxamide], the half-maximal inhibitory concentration (IC50) in assay [1] was over 30000 nM; in assay [2] it was 23 nM. As to `CC(C)(C(=O)N[C@@H]1[C@@H]2C[C@@H]3C[C@H]1C[C@@](C(N)=O)(C3)C2)c1ccc(-c2ccc(C(F)(F)F)cn2)cc1` [X, E-4-[(2-methyl-2-{4-[5-(trifluoromethyl)pyridin-2 yl]phenyl}propanoyl)amino]adamantane-1-carboxamide], the half-maximal inhibitory concentration (IC50) was over 30000 nM in assay [1] and 104 nM in assay [2]. `CC(C)(C(=O)N[C@@H]1[C@@H]2C[C@@H]3C[C@H]1C[C@@](C(N)=O)(C3)C2)c1ccsc1` [V, E-4-[(2-methyl-2-thien-3-ylpropanoyl)amino]adamantane-1-carboxamide]: the half-inhibitory concentration (IC50) in assay [1] turned out to be 15000 nM; in assay [2] it was 19 nM. For `CC(C)(C(=O)N[C@@H]1[C@@H]2C[C@@H]3C[C@H]1C[C@@](C(N)=O)(C3)C2)c1ccc(Br)cc1` [Z, E-4-{[2-(4-bromophenyl)-2-methylpropanoyl]amino}adamantane-1-carboxamide] the same measures were 23000 nM and 21 nM. For `CC1(C(=O)N[C@@H]2[C@@H]3C[C@@H]4C[C@H]2C[C@@](C(N)=O)(C4)C3)CCCCC1` [P, E-4-{[(1-methylcyclohexyl)carbonyl]amino}adamantane-1-carboxamide] the same measures were over 30000 nM and 38 nM. For `COc1ccc(C2(C(=O)N[C@@H]3[C@@H]4C[C@@H]5C[C@H]3C[C@@](C(N)=O)(C5)C4)CC2)cc1` [R, E-4-({[1-(4-methoxyphenyl)cyclopropyl]carbonyl}amino)adamantane-1-carboxamide] the same measures were 21000 nM and 27 nM. `NC(=O)[C@]12C[C@@H]3C[C@H](C1)[C@@H](NC(=O)C1(c4ccc(Cl)cc4Cl)CC1)[C@@H](C3)C2` [Q, E-4-({[1-(2,4-dichlorophenyl)cyclopropyl]carbonyl}amino)adamantane-1-carboxamide]: the concentration for half-maximal inhibition (IC50) in assay [1] amounted to 16000 nM; in assay [2], 36 nM. For the molecule `NC(=O)[C@]12C[C@@H]3C[C@H](C1)[C@@H](NC(=O)C1(c4ccc(F)cc4Cl)CCCC1)[C@@H](C3)C2` [Compound M, E-4-({[1-(2-chloro-4-fluorophenyl)cyclopentyl]carbonyl}amino)adamantane-1-carboxamide], the IC50 in assay [1] was over 30000 nM; in assay [2] it was 30 nM. Regarding `CC(C)(C(=O)N[C@@H]1[C@@H]2C[C@@H]3C[C@H]1C[C@@](C(N)=O)(C3)C2)c1cccc(Br)c1` [GG, E-4-{[2-(3-bromophenyl)-2-methylpropanoyl]amino}adamantane-1-carboxamide], the concentration for half-maximal inhibition (IC50) amounted to 9300 nM in assay [1] and 17 nM in assay [2]. In assay [1], `CC(C)(C(=O)N[C@@H]1[C@@H]2C[C@@H]3C[C@H]1C[C@@](C(N)=O)(C3)C2)c1ccc(-c2cccnc2)cc1` [II, E-4-{[2-methyl-2-(4-pyridin-3-ylphenyl)propanoyl]amino}adamantane-1-carboxamide] yielded an IC50 of 44000 nM. Turning to `NC(=O)[C@]12C[C@@H]3C[C@H](C1)[C@@H](NC(=O)C1(c4ccc(Cl)cc4)CCCC1)[C@@H](C3)C2` [I, E-4-({[1-(4-chlorophenyl)cyclopentyl]carbonyl}amino)adamantane-1-carboxamide], inhibition in assay [1] was half-maximal at 12000 nM (IC50). On to `Cc1ccc(C2(C(=O)N[C@@H]3[C@@H]4C[C@@H]5C[C@H]3C[C@@](C(N)=O)(C5)C4)CC2)cc1` [S, E-4-({[1-(4-methylphenyl)cyclopropyl]carbonyl}amino)adamantane-1-carboxamide], for which the IC50 in assay [1] turned out to be 15000 nM; in assay [2], 37 nM.

`Cn1cc(-c2ccc(C(C)(C)C(=O)N[C@@H]3[C@@H]4C[C@@H]5C[C@H]3C[C@@](C(N)=O)(C5)C4)cc2)cn1` [FF, E-4-({2-methyl-2-[4-(1-methyl-1H-pyrazol-4-yl)phenyl]propanoyl}amino)adamantane-1-carboxamide]: the IC50 is over 100000 nM in assay [1] and 28 nM in assay [2]. For `Cc1ccccc1CN1CCC(C)(C(=O)N[C@@H]2[C@@H]3C[C@@H]4C[C@H]2C[C@@](C(N)=O)(C4)C3)C1=O` (stereo partly shown) [CC] the same measures were 12000 nM and 23 nM. For `COc1ccc(C2(C(=O)N[C@@H]3[C@@H]4C[C@@H]5C[C@H]3C[C@@](C(N)=O)(C5)C4)CCCC2)cc1` [Y, E-4-({[1-(4-methoxyphenyl)cyclopentyl]carbonyl}amino)adamantane-1-carboxamide] the same measures were 13000 nM and 18 nM.
